Measurements reported in ChEMBL document CHEMBL3885861, “Open TG-GATES”.

Species on record: Rattus norvegicus
Assay: Open TG-GATES - Regimen: Daily Repeat
Assay type: toxicity, organism-based, Sprague-Dawley
Set-up: regimen Daily Repeat, gender Male, age 6 weeks
Conditions: in vivo, po, 0 mg/kg, route gavage, dose level Control; for APTT / Bas / Eos / Fbg / Hb / Ht / Lym / MCH / MCHC / MCV / Mono / Neu / PT / Plat / RBC / Ret / WBC: tissue Blood; for KIDNEY_L / KIDNEY_R / KIDNEY_TOTAL: tissue Kidney; for LIVER: tissue Liver; for A/G / ALP / ALT / AST / BUN / CRE / Ca / Cl / DBIL / GLC / IP / K / LDH / Na / PL / RALB / TBIL / TC / TG / TP / gamma-GTP: tissue Plasma

Question: What does the source list for O=C(O)COc1nn(Cc2ccccc2)c2ccccc12 [BENDAZAC]?
Answer: TERMINAL_BW (72 h, time 3 day): 229.2 g; APTT (72 h, time 3 day): 17.5 s; Bas (72 h, time 3 day): 0%; Eos (72 h, time 3 day): 1.2%; Fbg (72 h, time 3 day): 223.2 mg/dL; Hb (72 h, time 3 day): 14.2 g/dL; Ht (72 h, time 3 day): 42.6%; Lym (72 h, time 3 day): 77.2%; MCH (72 h, time 3 day): 21.4 pg; MCHC (72 h, time 3 day): 33.3%; MCV (72 h, time 3 day): 64.4 fL; Mono (72 h, time 3 day): 8.2%; Neu (72 h, time 3 day): 13.8%; PT (72 h, time 3 day): 11.6 s; Plat (72 h, time 3 day): 120.1 x10_4/uL; RBC (72 h, time 3 day): 661.6 x10_4/ul; Ret (72 h, time 3 day): 6.5%; WBC (72 h, time 3 day): 93.7 x10_2/uL; KIDNEY_L (72 h, time 3 day): 1 g; KIDNEY_R (72 h, time 3 day): 1 g; KIDNEY_TOTAL (72 h, time 3 day): 2 g; LIVER (72 h, time 3 day): 11.2 g; A/G (72 h, time 3 day): 2.1; ALP (72 h, time 3 day): 1059.4 IU/L; ALT (72 h, time 3 day): 41.4 IU/L; AST (72 h, time 3 day): 68.6 IU/L; BUN (72 h, time 3 day): 16.6 mg/dL; CRE (72 h, time 3 day): 0.5 mg/dL; Ca (72 h, time 3 day): 10.9 mg/dL; Cl (72 h, time 3 day): 103.4 meq/L; DBIL (72 h, time 3 day): 0.022 mg/dL; GLC (72 h, time 3 day): 206.8 mg/dL; IP (72 h, time 3 day): 7.7 mg/dL; K (72 h, time 3 day): 4.7 meq/L; LDH (72 h, time 3 day): 101.4 IU/L; Na (72 h, time 3 day): 139.8 meq/L; PL (72 h, time 3 day): 162.8 mg/dL; RALB (72 h, time 3 day): 3.9 g/dL; TBIL (72 h, time 3 day): 0.3 mg/dL; TC (72 h, time 3 day): 78.2 mg/dL; TG (72 h, time 3 day): 127.8 mg/dL; TP (72 h, time 3 day): 5.7 g/dL; gamma-GTP (72 h, time 3 day): 1.2 IU/L; TERMINAL_BW ([…], time 7 day): 264.6 g; TERMINAL_BW ([…], time 14 day): 318.4 g; TERMINAL_BW ([…], time 28 day): 399.8 g; APTT ([…], time 7 day): 16.9 s; Bas ([…], time 7 day): 0%; Eos ([…], time 7 day): 0.8%; Fbg ([…], time 7 day): 228.6 mg/dL; Hb ([…], time 7 day): 14.1 g/dL; Ht ([…], time 7 day): 41.4%; Lym ([…], time 7 day): 80.8%; MCH ([…], time 7 day): 21.5 pg; MCHC ([…], time 7 day): 34.1%; MCV ([…], time 7 day): 63.2 fL; Mono ([…], time 7 day): 6%; Neu ([…], time 7 day): 12.6%; PT ([…], time 7 day): 11.5 s; Plat ([…], time 7 day): 128.1 x10_4/uL; RBC ([…], time 7 day): 657 x10_4/ul; Ret ([…], time 7 day): 5.1%; WBC ([…], time 7 day): 96.5 x10_2/uL; APTT ([…], time 14 day): 17.2 s; Bas ([…], time 14 day): 0%; Eos ([…], time 14 day): 0.8%; Fbg ([…], time 14 day): 236 mg/dL; Hb ([…], time 14 day): 14.5 g/dL; Ht ([…], time 14 day): 43%; Lym ([…], time 14 day): 80.4%; MCH ([…], time 14 day): 21.2 pg; MCHC ([…], time 14 day): 33.8%; MCV ([…], time 14 day): 62.8 fL; Mono ([…], time 14 day): 7%; Neu ([…], time 14 day): 11.8%; PT ([…], time 14 day): 11 s; Plat ([…], time 14 day): 122.8 x10_4/uL; RBC ([…], time 14 day): 684.4 x10_4/ul; Ret ([…], time 14 day): 4.3%; WBC ([…], time 14 day): 120.8 x10_2/uL; APTT ([…], time 28 day): 17.8 s; Bas ([…], time 28 day): 0%; Eos ([…], time 28 day): 1%; Fbg ([…], time 28 day): 219 mg/dL; Hb ([…], time 28 day): 15.5 g/dL; Ht ([…], time 28 day): 45.9%; Lym ([…], time 28 day): 83.6%; MCH ([…], time 28 day): 19.8 pg; MCHC ([…], time 28 day): 33.7%; MCV ([…], time 28 day): 58.8 fL; Mono ([…], time 28 day): 4.2%; Neu ([…], time 28 day): 11.4%; PT ([…], time 28 day): 11.7 s; Plat ([…], time 28 day): 115.9 x10_4/uL; RBC ([…], time 28 day): 779.8 x10_4/ul; Ret ([…], time 28 day): 3.5%; WBC ([…], time 28 day): 117.2 x10_2/uL; KIDNEY_L ([…], time 7 day): 1.1 g; KIDNEY_R ([…], time 7 day): 1.2 g; KIDNEY_TOTAL ([…], time 7 day): 2.3 g; KIDNEY_L ([…], time 14 day): 1.3 g; KIDNEY_R ([…], time 14 day): 1.3 g; KIDNEY_TOTAL ([…], time 14 day): 2.6 g; KIDNEY_L ([…], time 28 day): 1.4 g; KIDNEY_R ([…], time 28 day): 1.4 g; KIDNEY_TOTAL ([…], time 28 day): 2.8 g; LIVER ([…], time 7 day): 13.2 g; LIVER ([…], time 14 day): 15.1 g; LIVER ([…], time 28 day): 16.2 g; A/G ([…], time 7 day): 2; ALP ([…], time 7 day): 804.6 IU/L; ALT ([…], time 7 day): 30 IU/L; AST ([…], time 7 day): 60.8 IU/L; BUN ([…], time 7 day): 19.6 mg/dL; CRE ([…], time 7 day): 0.5 mg/dL; Ca ([…], time 7 day): 11.3 mg/dL; Cl ([…], time 7 day): 103.6 meq/L; DBIL ([…], time 7 day): 0.012 mg/dL; GLC ([…], time 7 day): 222.6 mg/dL; IP ([…], time 7 day): 8 mg/dL; K ([…], time 7 day): 4.8 meq/L; LDH ([…], time 7 day): 84.8 IU/L; Na ([…], time 7 day): 141.2 meq/L; PL ([…], time 7 day): 146.2 mg/dL; RALB ([…], time 7 day): 3.9 g/dL; TBIL ([…], time 7 day): 0.3 mg/dL; TC ([…], time 7 day): 70 mg/dL; TG ([…], time 7 day): 111 mg/dL; TP ([…], time 7 day): 5.8 g/dL; gamma-GTP ([…], time 7 day): 1 IU/L; A/G ([…], time 14 day): 1.6; ALP ([…], time 14 day): 749.8 IU/L; ALT ([…], time 14 day): 32 IU/L; AST ([…], time 14 day): 61.2 IU/L; BUN ([…], time 14 day): 18.2 mg/dL; CRE ([…], time 14 day): 0.5 mg/dL; Ca ([…], time 14 day): 10.4 mg/dL; Cl ([…], time 14 day): 105.4 meq/L; DBIL ([…], time 14 day): 0.006 mg/dL; GLC ([…], time 14 day): 197.2 mg/dL; IP ([…], time 14 day): 7.1 mg/dL; K ([…], time 14 day): 4.7 meq/L; LDH ([…], time 14 day): 102.2 IU/L; Na ([…], time 14 day): 141.2 meq/L; PL ([…], time 14 day): 158 mg/dL; RALB ([…], time 14 day): 3.8 g/dL; TBIL ([…], time 14 day): 0.3 mg/dL; TC ([…], time 14 day): 74.8 mg/dL; TG ([…], time 14 day): 153.2 mg/dL; TP ([…], time 14 day): 6.2 g/dL; gamma-GTP ([…], time 14 day): 2.4 IU/L; A/G ([…], time 28 day): 1.4; ALP ([…], time 28 day): 590.2 IU/L; ALT ([…], time 28 day): 33.2 IU/L; AST ([…], time 28 day): 64.4 IU/L; BUN ([…], time 28 day): 20 mg/dL; CRE ([…], time 28 day): 0.6 mg/dL; Ca ([…], time 28 day): 10 mg/dL; Cl ([…], time 28 day): 104.8 meq/L; DBIL ([…], time 28 day): 0.01 mg/dL; GLC ([…], time 28 day): 189.8 mg/dL; IP ([…], time 28 day): 6.4 mg/dL; K ([…], time 28 day): 4.4 meq/L; LDH ([…], time 28 day): 71.4 IU/L; Na ([…], time 28 day): 140.4 meq/L; PL ([…], time 28 day): 142.8 mg/dL; RALB ([…], time 28 day): 3.6 g/dL; TBIL ([…], time 28 day): 0.3 mg/dL; TC ([…], time 28 day): 71.2 mg/dL; TG ([…], time 28 day): 130 mg/dL; TP ([…], time 28 day): 6.2 g/dL; gamma-GTP ([…], time 28 day): 1.8 IU/L
